For series [1] the following is noted: 101.33 kPa, Liquid.
Series [2] is described as follows: relative permittivity at various frequencies (dimensionless). Conditions: 101.3 kPa, Liquid, Frequency=1 MHz, HP4284A LCR Meter with HP16452A measuring cell.

SMILES strings stand for the structures. ± gives the expanded uncertainty stated by the source.

In general, mass density refers to mass per unit of volume. `CCCCCCCCC` [nonane]: the mass density in series [1] (288.15 K) worked out at 721.77 ± 0.6 kg/m3; in series [1] (293.15 K), 717.76 ± 0.6 kg/m3; in series [1] (298.15 K) it was 713.77 ± 0.61 kg/m3; in series [1] (303.15 K) it was 709.89 ± 0.61 kg/m3; in series [1] (308.15 K), 706.2 ± 0.62 kg/m3; in series [1] (318.15 K) it was 698.14 ± 0.63 kg/m3. Moreover, in series [1] (328.15 K), the mass density is reported as 690.14 ± 0.64 kg/m3. Moreover, the relative permittivity in series [2] (288.15 K) came to 1.99 ± 0.04; in series [2] (293.15 K) it was 1.99 ± 0.04; in series [2] (298.15 K) it was 1.98 ± 0.04; in series [2] (303.15 K) it was 1.97 ± 0.04; in series [2] (308.15 K) it was 1.96 ± 0.04; in series [2] (318.15 K), 1.95 ± 0.04. Further, the relative permittivity in series [2] (328.15 K) is given as 1.94 ± 0.04.
In the case of `COCCOCCOCCOC` [2,5,8,11-tetraoxadodecane], the mass density worked out at 989.16 ± 0.76 kg/m3 in series [1] (288.15 K); 984.16 ± 0.78 kg/m3 in series [1] (293.15 K); 979.61 ± 0.8 kg/m3 in series [1] (298.15 K); 974.85 ± 0.82 kg/m3 in series [1] (303.15 K); 970.85 ± 0.84 kg/m3 in series [1] (308.15 K); 960.67 ± 0.89 kg/m3 in series [1] (318.15 K). Also, in series [1] (328.15 K), the mass density is recorded as 951.06 ± 0.94 kg/m3. The relative permittivity in series [2] (288.15 K) amounted to 7.88 ± 0.16; in series [2] (293.15 K), 7.73 ± 0.15; in series [2] (298.15 K), 7.58 ± 0.15; in series [2] (303.15 K) it was 7.46 ± 0.15; in series [2] (308.15 K), 7.33 ± 0.15; in series [2] (318.15 K), 7.09 ± 0.14. For the same molecule, the relative permittivity in series [2] (328.15 K) amounted to 6.88 ± 0.14.
For `CCCCCCCCCCCC` [dodecane], the mass density in series [1] (288.15 K) worked out at 752.44 ± 0.64 kg/m3; in series [1] (293.15 K), 748.8 ± 0.65 kg/m3; in series [1] (298.15 K), 745.19 ± 0.65 kg/m3; in series [1] (303.15 K) it was 741.57 ± 0.66 kg/m3; in series [1] (308.15 K), 737.93 ± 0.66 kg/m3; in series [1] (318.15 K) it was 730.7 ± 0.67 kg/m3. The mass density in series [1] (328.15 K) came out at 723.32 ± 0.68 kg/m3. Also, the relative permittivity was found to be 2.04 ± 0.04 in series [2] (288.15 K); 2.03 ± 0.04 in series [2] (293.15 K); 2.02 ± 0.04 in series [2] (298.15 K); 2.02 ± 0.04 in series [2] (303.15 K); 2.01 ± 0.04 in series [2] (308.15 K); 2 ± 0.04 in series [2] (318.15 K). In addition, in series [2] (328.15 K), the relative permittivity turned out to be 1.99 ± 0.04.
